We go through 18 compounds from patent publication US20090088441A1, “Quinoline Compounds” (priority 2007, published 2009).

The structures appear in SMILES notation.

Broadly, the EC50 is the midpoint of the concentration-response curve.

For assay [1], the target named is T1, GABAB(1A,2) receptor heterodimer (Homo sapiens, UniProt O75899+Q9UBS5).
T1 construct: expressed in transfected cells; membrane preparation
Nature of the assay: GTPγS35 radioligand filtration-binding assay for determination of PAM potency. The assay is classed as biochemical. To be noted: membranes of CHO-K1 cells expressing GABABR1a/GABABR2; GABA dose-response with 10, 1, 0.1 and 0.01 μM PAM; concentration reducing GABA's EC50 by 50%; read-out: Mean (EC50 derived) PAM EC50. Here is the method: The effect of GABA in an automated GTPγS^35 radioligand filtration-binding assay in CHO cells expressing the GABAB(1A,2) receptor heterodimer was studied in the presence or absence of the positive allosteric modulator test compounds.
(§1) The potency and efficacy of the compounds acting as agonists at the GABAB receptor was also determined in a automated GTPγS^35 radioligand filtration-binding assay.
(§2) The GABAB receptor is a G-protein coupled receptor. Binding of a ligand activates the receptor leading to recruitment of G-protein and a substitution of the G-protein bound GDP to GTP. The G-protein becomes active. The G-protein is inactivated by hydrolysis of GTP to GDP. G-proteins are membrane bound and therefore present in membrane preparations.
(§3) In the GTPγS^35 assay, GTP is not present but instead GTPγS^35 where one of the phosphate groups are substituted to a sulphur group which cannot be hydrolysed. Upon activation of the receptor, radiolabelled GTPγS^35 replaces the GDP. The complex cannot be inactivated and the radiolabelled complex is accumulating. At the end of the assay, the reaction mixture is filtered through a membrane-binding filter. Excess GTPγS^35 is removed by washing and the membrane bound S^35, which correlates to the degree of receptor activation, is measured with a β-Liquid Scintillation Counter.
GABABR1a and GABABR2 were cloned from human brain cDNA and subcloned into pCI-Neo (Promega) and pALTER-1 (Promega), respectively.
In order to optimise the Kozak consensus sequence of GABABR2, in situ mutagenesis was performed using the Altered Sites Mutagenesis kit according to manufacturer's instruction (Promega) with the following primer, 5′-[…]-3′. The optimised GABABR2 was then restricted from pALTER-1 with Xho I+Kpn I and subcloned into the mammalian expression vector pcDNA3.1 (−)/Zeo (Invitrogen) to produce the final construct, pcDNA3.1 (−)/Zeo-GABABR2.
For generation of stable cell lines, CHO-K1 cells were grown in Nut mix F-12 (Ham) media supplemented with 10% FBS, 100 U/ml Penicillin and 100 μg/ml Streptomycin at 37° C. in a humidified CO2-incubator. The cells were detached with 1 mM EDTA in PBS and 1 million cells were seeded in 100 mm petri dishes. After 24 hours the culture media was replaced with OptiMEM and incubated for 1 hour in a CO2-incubator.
For generation of a cell line expressing the GABABR1a/GABABR2 heterodimer, GABABR1a plasmid DNA ([…]) GABABR2 plasmid DNA (4 μg) and lipofectamine (24 μl) were mixed in 5 ml OptiMEM and incubated for 45 minutes at room temperature. […] After expansion, the GABAB receptor functional response was tested by measuring the GABAB receptor dependent release of intracellular calcium in a fluorescence imaging plate reader (FLIPR). […]

For assay [2], the target named is T2, GABABR1a/GABABR2 heterodimer (Homo sapiens, UniProt O75899+Q9UBS5).
T2 construct: expressed in transfected cells; membrane preparation
T2 sequence (Q9UBS5 15-961 limits assumed): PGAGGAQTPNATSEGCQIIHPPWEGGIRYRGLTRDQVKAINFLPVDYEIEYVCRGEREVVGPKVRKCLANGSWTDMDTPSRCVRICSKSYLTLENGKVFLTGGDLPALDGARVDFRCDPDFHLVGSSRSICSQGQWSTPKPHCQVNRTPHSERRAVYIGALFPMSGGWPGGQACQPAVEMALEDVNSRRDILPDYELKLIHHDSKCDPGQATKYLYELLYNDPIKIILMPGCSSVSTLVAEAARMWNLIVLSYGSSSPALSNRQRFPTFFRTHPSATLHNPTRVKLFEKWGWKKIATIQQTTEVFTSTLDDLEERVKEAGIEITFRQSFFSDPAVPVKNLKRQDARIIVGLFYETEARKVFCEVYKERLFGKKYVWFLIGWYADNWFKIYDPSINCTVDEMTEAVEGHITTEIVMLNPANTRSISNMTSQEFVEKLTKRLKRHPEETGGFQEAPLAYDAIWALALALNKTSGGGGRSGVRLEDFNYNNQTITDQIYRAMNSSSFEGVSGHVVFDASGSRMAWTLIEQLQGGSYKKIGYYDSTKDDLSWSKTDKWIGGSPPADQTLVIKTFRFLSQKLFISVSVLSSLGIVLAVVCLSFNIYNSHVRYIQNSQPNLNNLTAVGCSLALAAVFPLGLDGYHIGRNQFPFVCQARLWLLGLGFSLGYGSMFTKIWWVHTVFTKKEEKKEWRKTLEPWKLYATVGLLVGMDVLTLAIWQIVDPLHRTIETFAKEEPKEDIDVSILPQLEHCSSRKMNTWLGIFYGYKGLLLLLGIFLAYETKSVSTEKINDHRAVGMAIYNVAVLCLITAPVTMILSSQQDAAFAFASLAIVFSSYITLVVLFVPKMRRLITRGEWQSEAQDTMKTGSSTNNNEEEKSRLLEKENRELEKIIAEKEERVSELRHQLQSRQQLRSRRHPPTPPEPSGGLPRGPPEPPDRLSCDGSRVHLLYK
T2 sequence (O75899 42-941): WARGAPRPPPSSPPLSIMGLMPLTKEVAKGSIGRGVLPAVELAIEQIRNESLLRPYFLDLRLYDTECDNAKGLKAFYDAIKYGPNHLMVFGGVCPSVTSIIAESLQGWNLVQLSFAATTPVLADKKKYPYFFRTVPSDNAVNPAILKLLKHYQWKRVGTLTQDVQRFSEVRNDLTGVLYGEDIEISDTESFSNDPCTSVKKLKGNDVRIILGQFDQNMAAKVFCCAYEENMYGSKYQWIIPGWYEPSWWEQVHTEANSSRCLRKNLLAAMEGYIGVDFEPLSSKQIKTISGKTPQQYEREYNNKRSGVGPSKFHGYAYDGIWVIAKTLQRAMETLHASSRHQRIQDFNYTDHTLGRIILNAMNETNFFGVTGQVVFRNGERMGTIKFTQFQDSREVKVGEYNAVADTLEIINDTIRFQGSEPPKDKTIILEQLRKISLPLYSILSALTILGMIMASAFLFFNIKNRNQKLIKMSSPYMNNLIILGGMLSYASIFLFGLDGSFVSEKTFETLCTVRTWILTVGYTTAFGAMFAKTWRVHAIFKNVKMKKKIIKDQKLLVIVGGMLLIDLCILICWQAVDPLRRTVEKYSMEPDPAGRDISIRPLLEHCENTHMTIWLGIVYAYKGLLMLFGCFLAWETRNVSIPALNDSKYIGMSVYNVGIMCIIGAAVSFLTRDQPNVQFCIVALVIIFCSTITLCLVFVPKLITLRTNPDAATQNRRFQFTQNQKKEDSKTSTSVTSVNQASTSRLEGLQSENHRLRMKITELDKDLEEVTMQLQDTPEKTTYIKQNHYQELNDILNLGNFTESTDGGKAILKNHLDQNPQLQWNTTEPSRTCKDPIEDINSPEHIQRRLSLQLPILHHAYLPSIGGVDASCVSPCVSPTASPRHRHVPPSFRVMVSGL
Nature of the assay: GTPγS35 radioligand filtration-binding assay for determination of agonist potency. Format: biochemical. To be noted: membranes of CHO K1 Flp-In cells expressing GABABR1a/GABABR2; 30° C., 1 hour. Here is the method: as §1, §2, §3
The human GABABR1a was subcloned into pIRESneo3 (Clontech) using GABABR1a construct as a template (refseqN NM001470). GABABR2 was subcloned into pcDNA5/FRT (Invitrogen) using GABABR2 construct as a template (refseqN NM005458). The Kozak sequence GCCACC was introduced before the start codon in both constructs.
For generation of stable cell lines, CHO K1 Flp-In cells (Invitrogen) were grown in DMEM/F12 1:1 media supplemented with 10% FBS at 37° C. in a humidified CO2-incubator. The cells were detached with Accutase and 1.5 million cells were seeded into T75 flasks. After 24 h, transfection of the cells were performed with the GABABR2 construct. For generation of cell lines expressing GABABR2, GABABR2 plasmid (1 μg) and pOG44 from Invitrogen (9 μg) were mixed with 30 μl Lipofectamine 2000 in 600 μl OptiMEM for 20 minutes. The cells were exposed to transfection medium for 5 hours and was then replaced with culture medium. After 2 days 0.5 mg/ml Hygromycin were added to culture medium. The cells were cultured for an additional 10 days to establish a stable cell mix expressing GABABR2. For generation of a cell line expressing the GABABR1a/GABABR2 hetrodimer, GABABR1a plasmid DNA (8 μg) and Lipofectamine (30 μl) were mixed in 600 μl OptiMEM and incubated for 20 minutes before added to CHO-Flp-In cells expressing GABABR2. After 2 days additional selection agent was added (0.8 mg/ml Geneticin). The cells were cultured for another 10 days to generate a stable mixed population expressing the GABABR1a/GABABR2 heterodimer. The cell line was analyzed by GTPγS^35 assay with GABA as agonist.
GTPγS^35 radioligand filtration-binding assays were performed using an automated workstation at 30° C. for 1 hour in assay buffer (50 mM HEPES, 40 mM NaCl, 1 mM MgCl2×6H2O, 30 μg/mL Saponin, pH 7.4 at RT) containing 0.025 μg/μL of membrane protein (prepared from the cell line described above), 10 μM GDP and 0.55 nCi/μL GTPγS^35 in a final volume of 60 μL. The reaction was started by the addition of compounds (GABA was always included as a positive control), start concentration 100 μM dilution factor 3. The reaction was terminated and membranes collected by addition of ice-cold wash buffer (50 mM Tris-HCl, 5 mM MgCl2×6H2O, 50 mM NaCl, pH 7.4 at 4° C.) followed by rapid filtration under vacuum through a MultiScreen HTS 384 FB filter plate. Repeated washing of the filters with ice-cold wash buffer washed the unbound radioligand away. The filter plates were dried for 1½-2 hours at 50° C., then 8 μL scintillation liquid was added per well followed by incubation at RT for at least 20 minutes before bound radioactivity was determined using a β-Liquid Scintillation Counter (1450 Microbeta Trilux, Wallac, Finland)
100% activation (max) is calculated as the mean value for wells containing 1 mM GABA. […]

T1 sequence (Q9UBS5 15-961 limits assumed): as the sequence (Q9UBS5 15-961 limits assumed) above
T1 sequence (O75899 42-941): as the sequence (O75899 42-941) above

On to `Cc1nc2ccc(Br)cc2c(-c2ccc(F)cc2)c1C(C)Oc1ccc(Cl)cc1` (stereo not shown) [Example 2, 6-bromo-3-[1-(4-chlorophenoxy)ethyl]-4-(4-fluorophenyl)-2-methylquinoline], for which the figures for the half-maximal effective concentration (EC50) in assay [1] and in assay [2] were 9200 nM and 6500 nM, respectively.

As to `Cc1nc2ccc(N3CCCCC3)cc2c(-c2ccc(F)cc2)c1C(C)Oc1ccccn1` (stereo not shown) [Example 5, 4-(4-fluorophenyl)-2-methyl-6-piperidin-1-yl-3-[1-(pyridin-2-yloxy)ethyl]quinoline], a half-maximal effect in assay [2] (EC50) was put at 1800 nM. On to `Cc1nc2ccc(N3CCCCC3)cc2c(-c2ccc(F)cc2)c1C(C)Oc1ccc(C#N)cc1` (stereo not shown) [Example 6, 4-{1-[4-(4-fluorophenyl)-2-methyl-6-piperidin-1-ylquinolin-3-yl]ethoxy}benzonitrile], for which the EC50 in assay [2] came to 2900 nM.

Compound `Cc1nc2ccc(N3CCCCC3)cc2c(-c2ccc(F)cc2)c1C(C)Oc1cccc(C#N)c1` (stereo not shown) [Example 7, 3-{1-[4-(4-fluorophenyl)-2-methyl-6-piperidin-1-ylquinolin-3-yl]ethoxy}benzonitrile] displayed an EC50 in assay [2] of 1500 nM. Same read-out and setting: the result for `Cc1nc2ccc(N3CCCCC3)cc2c(-c2ccc(F)cc2)c1C(C)Oc1ccc(S(C)(=O)=O)cc1` (stereo not shown) [Example 8, 4-(4-fluorophenyl)-2-methyl-3-{1-[4-(methylsulfonyl)phenoxy]ethyl}-6-piperidin-1-ylquinoline] reads 1700 nM; that for `Cc1nc2ccc(N3CCCCC3)cc2c(-c2ccc(F)cc2)c1C(C)Oc1cccnc1` (stereo not shown) [Example 9, 4-(4-fluorophenyl)-2-methyl-6-piperidin-1-yl-3-[1-(pyridin-3-yloxy)ethyl]quinoline], 3000 nM. In turn, `Cc1nc2ccc(N3CCCCC3)cc2c(-c2ccc(F)cc2)c1C(C)Oc1ccccc1Cl` (stereo not shown) [Example 10, 3-[1-(2-chlorophenoxy)ethyl]-4-(4-fluorophenyl)-2-methyl-6-piperidin-1-ylquinoline] showed a half-maximal effective concentration (EC50) in assay [2] of 1300 nM. Consider `COc1ccc(OC(C)c2c(C)nc3ccc(N4CCCCC4)cc3c2-c2ccc(F)cc2)cc1` (stereo not shown) [Example 11, 4-(4-fluorophenyl)-3-[1-(4-methoxyphenoxy)ethyl]-2-methyl-6-piperidin-1-ylquinoline], for which, in assay [2], a half-maximal effect (EC50) was put at 1600 nM. Turning to `Cc1nc2ccc(N3CCCCC3)cc2c(-c2ccc(F)cc2)c1C(C)Oc1cccc(N(C)C)c1` (stereo not shown) [Example 12, (3-{1-[4-(4-fluorophenyl)-2-methyl-6-piperidin-1-ylquinolin-3-yl]ethoxy}phenyl)dimethylamine], the response in assay [2] was half-maximal at 2200 nM (EC50). Still for that read-out and setting: next, `Cc1nc2ccc(N3CCCCC3)cc2c(-c2ccc(F)cc2)c1C(C)Oc1ccccc1C(C)C` (stereo not shown) [Example 13, 4-(4-fluorophenyl)-3-[1-(2-isopropylphenoxy)ethyl]-2-methyl-6-piperidin-1-ylquinoline]: 300 nM; `Cc1nc2ccc(N3CCCCC3)cc2c(-c2ccc(F)cc2)c1C(C)Oc1cccc(C(N)=O)c1` (stereo not shown) [Example 14, 3-{1-[4-(4-fluorophenyl)-2-methyl-6-piperidin-1-ylquinolin-3-yl]ethoxy}benzamide]: 4500 nM. Turning to `Cc1nc2ccc(N3CCCCC3)cc2c(-c2ccc(F)cc2)c1C(C)Oc1ccccc1C#N` (stereo not shown) [Example 15, 2-{1-[4-(4-fluorophenyl)-2-methyl-6-piperidin-1-ylquinolin-3-yl]ethoxy}benzonitrile], the EC50 in assay [2] is 900 nM. `Cc1nc2ccc(N3CCCCC3)cc2c(-c2ccc(F)cc2)c1C(C)n1ccccc1=O` (stereo not shown) [Example 16, 1-{1-[4-(4-fluorophenyl)-2-methyl-6-piperidin-1-ylquinolin-3-yl]ethyl}pyridin-2(1H)-one] gave an EC50 in assay [2] of 24000 nM.

Regarding `Cc1nc2ccc(N3CCN(C)CC3)cc2c(-c2ccc(F)cc2)c1C(C)Oc1ccc(Cl)cc1` (stereo not shown) [Example 17, 3-[1-(4-chlorophenoxy)ethyl]-4-(4-fluorophenyl)-2-methyl-6-(4-methylpiperazin-1-yl)quinoline], in assay [2], the EC50 turned out to be 7600 nM. As for `Cc1nc2ccc(N3CCN(C)CC3)cc2c(-c2ccc(F)cc2)c1C(C)Oc1ccccc1C(C)C` (stereo not shown) [Example 18, 4-(4-fluorophenyl)-3-[1-(2-isopropylphenoxy)ethyl]-2-methyl-6-(4-methylpiperazin-1-yl)quinoline], the EC50 in assay [2] amounted to 4300 nM.

On to `Cc1nc2ccc(N3CCCCC3)cc2c(-c2ccc(F)cc2)c1C(C)Oc1ccc(O)cc1` (stereo not shown) [Example 19, 4-{1-[4-(4-fluorophenyl)-2-methyl-6-piperidin-1-ylquinolin-3-yl]ethoxy}phenol], for which the EC50 in assay [2] came to 1200 nM. As for `Cc1nc2ccc(Br)cc2c(-c2ccc(F)cc2)c1C(=O)OC(C)(C)C` [Example 20, tert-butyl 6-bromo-4-(4-fluorophenyl)-2-methylquinoline-3-carboxylate], the concentration giving a half-maximal response (EC50) in assay [1] turned out to be 3100 nM. In assay [2], `Cc1nc2ccc(N3CCCCC3)cc2c(-c2ccc(F)cc2)c1COc1ccc(Cl)cc1` [Example 25, 3-[(4-chlorophenoxy)methyl]-4-(4-fluorophenyl)-2-methyl-6-piperidin-1-ylquinoline] registered an EC50 of 1100 nM.
